Consider two compounds from ChEMBL document CHEMBL5303765, “Data for DCP probe BAY-7081” (2023).

Assay [1] addresses T1, Alpha-2B adrenergic receptor (Homo sapiens) (UniProt P18089).
T1 sequence (whole entry): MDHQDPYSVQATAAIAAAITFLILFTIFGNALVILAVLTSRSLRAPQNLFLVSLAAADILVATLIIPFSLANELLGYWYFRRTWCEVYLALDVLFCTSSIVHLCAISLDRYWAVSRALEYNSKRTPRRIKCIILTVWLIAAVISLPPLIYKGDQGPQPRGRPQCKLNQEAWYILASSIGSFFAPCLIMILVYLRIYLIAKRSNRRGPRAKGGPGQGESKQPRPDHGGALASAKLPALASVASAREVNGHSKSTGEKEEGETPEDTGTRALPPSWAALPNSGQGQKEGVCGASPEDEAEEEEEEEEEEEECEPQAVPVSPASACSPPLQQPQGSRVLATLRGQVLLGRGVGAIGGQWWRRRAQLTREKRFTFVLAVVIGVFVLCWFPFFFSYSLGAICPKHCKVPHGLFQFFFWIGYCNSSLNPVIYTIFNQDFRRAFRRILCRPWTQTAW
The following applies: Compound concentration 10.0 uM.

Assay [2] deals with GABA-A receptor; anion channel (Rattus norvegicus) (UniProt O09028+P15431+P18506+P18508+P19969+P20236+P23574+P23576+P28471+P28473+P30191+P62813+P63079+P63138+Q91ZM7+Q9ES14). Conditions: Compound concentration 10.0 uM.
In assay [3] the target is Serine/threonine-protein kinase WNK1 (Homo sapiens) (UniProt Q9H4A3). The experiment in a line: WNK1 SGC Tm panel (DSF). The following applies: for ΔTm: Compound concentration 10.0 uM.
Assay [4] deals with Beta-1 adrenergic receptor (Homo sapiens) (UniProt P08588). The following applies: Compound concentration 10.0 uM.
Assay [5] addresses T2, Alpha-2C adrenergic receptor (Homo sapiens) (UniProt P18825).
T2 sequence (whole entry): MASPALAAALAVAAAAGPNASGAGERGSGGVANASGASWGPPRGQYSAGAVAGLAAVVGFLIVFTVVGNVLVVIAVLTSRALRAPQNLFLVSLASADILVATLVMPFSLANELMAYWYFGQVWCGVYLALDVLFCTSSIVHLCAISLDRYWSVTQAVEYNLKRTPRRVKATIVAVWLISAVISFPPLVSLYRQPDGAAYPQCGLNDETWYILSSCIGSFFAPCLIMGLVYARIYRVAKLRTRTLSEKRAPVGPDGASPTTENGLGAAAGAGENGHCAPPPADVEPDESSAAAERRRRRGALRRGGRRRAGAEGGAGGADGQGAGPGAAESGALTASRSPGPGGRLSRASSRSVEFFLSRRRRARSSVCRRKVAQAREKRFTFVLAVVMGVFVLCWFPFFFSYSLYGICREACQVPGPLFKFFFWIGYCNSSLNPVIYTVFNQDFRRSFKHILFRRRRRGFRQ
Conditions: Compound concentration 10.0 uM.

The target in assay [6] is T3, Dual specificity protein kinase TTK (Homo sapiens) (UniProt P33981).
T3 sequence (whole entry): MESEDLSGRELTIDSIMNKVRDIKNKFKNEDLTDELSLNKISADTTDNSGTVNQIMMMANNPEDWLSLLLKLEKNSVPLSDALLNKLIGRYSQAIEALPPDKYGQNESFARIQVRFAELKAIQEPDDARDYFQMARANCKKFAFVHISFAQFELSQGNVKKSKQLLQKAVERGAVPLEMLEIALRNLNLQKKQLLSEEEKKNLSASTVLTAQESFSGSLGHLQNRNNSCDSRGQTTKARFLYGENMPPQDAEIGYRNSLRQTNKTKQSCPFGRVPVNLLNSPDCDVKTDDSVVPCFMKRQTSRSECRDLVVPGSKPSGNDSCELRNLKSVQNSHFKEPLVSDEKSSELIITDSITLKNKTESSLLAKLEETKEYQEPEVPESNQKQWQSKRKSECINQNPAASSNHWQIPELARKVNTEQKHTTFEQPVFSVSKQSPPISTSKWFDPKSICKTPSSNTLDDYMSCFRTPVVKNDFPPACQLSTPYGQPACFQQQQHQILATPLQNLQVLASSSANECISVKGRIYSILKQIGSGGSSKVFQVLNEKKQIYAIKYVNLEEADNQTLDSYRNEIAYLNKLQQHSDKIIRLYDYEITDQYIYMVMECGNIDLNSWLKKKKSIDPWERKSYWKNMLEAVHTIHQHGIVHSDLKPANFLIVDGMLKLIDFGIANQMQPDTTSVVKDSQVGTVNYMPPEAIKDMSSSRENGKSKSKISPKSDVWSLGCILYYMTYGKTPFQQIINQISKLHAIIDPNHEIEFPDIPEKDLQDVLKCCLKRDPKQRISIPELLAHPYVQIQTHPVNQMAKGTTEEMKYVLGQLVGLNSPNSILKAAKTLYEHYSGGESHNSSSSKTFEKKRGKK
The experiment in a line: TTK SGC Tm panel (DSF). Conditions: for ΔTm: Compound concentration 10.0 uM.

In assay [7] the target is T4, Membrane-associated tyrosine- and threonine-specific cdc2-inhibitory kinase (Homo sapiens) (UniProt Q99640).
T4 sequence (whole entry): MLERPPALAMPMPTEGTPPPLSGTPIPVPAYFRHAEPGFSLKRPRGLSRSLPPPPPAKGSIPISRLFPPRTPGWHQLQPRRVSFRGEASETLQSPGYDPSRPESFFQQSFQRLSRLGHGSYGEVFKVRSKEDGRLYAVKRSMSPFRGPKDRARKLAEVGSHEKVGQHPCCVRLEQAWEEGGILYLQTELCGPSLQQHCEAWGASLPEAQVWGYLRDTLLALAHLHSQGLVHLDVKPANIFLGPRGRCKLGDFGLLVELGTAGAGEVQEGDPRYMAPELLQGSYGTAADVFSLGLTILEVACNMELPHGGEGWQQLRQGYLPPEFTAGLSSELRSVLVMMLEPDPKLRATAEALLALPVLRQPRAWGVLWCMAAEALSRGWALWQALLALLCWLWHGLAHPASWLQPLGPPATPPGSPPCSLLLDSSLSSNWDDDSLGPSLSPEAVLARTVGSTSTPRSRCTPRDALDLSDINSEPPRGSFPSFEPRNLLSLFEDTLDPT
In words: PKMYT1 SGC Tm panel (DSF). Conditions: for ΔTm: Compound concentration 10.0 uM.

Assay [8] addresses D(1B) dopamine receptor (Homo sapiens) (UniProt P21918). Conditions: Compound concentration 10.0 uM.
The target in assay [9] is Calcium/calmodulin-dependent protein kinase type II subunit beta (Homo sapiens) (UniProt Q13554). In words: CAMK2B SGC Tm panel (DSF). Conditions: for ΔTm: Compound concentration 10.0 uM.
The target of assay [10] is 5-hydroxytryptamine receptor 1D (Homo sapiens) (UniProt P28221). Conditions: Compound concentration 10.0 uM.
The target in assay [11] is Sodium-dependent noradrenaline transporter (Homo sapiens) (UniProt P23975). Conditions: Compound concentration 10.0 uM.
Chain of Sodium-dependent noradrenaline transporter (Homo sapiens) (P23975 whole entry): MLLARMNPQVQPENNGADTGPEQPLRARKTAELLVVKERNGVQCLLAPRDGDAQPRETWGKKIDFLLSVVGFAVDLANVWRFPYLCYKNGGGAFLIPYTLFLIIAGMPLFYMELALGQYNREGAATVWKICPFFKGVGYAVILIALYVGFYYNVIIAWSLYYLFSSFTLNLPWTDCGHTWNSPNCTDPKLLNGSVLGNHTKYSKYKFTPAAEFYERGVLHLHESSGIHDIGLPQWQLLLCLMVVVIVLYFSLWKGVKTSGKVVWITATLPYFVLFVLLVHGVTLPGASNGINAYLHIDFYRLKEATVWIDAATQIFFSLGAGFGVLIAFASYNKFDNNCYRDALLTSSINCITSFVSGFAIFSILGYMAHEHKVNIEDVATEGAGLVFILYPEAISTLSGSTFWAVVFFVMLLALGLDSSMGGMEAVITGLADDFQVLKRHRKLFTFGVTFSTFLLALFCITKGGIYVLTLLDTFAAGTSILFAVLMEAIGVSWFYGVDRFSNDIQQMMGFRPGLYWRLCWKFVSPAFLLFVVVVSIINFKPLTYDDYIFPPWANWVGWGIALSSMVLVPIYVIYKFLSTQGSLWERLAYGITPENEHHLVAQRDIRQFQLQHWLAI

Chain of Calcium/calmodulin-dependent protein kinase type II subunit beta (Homo sapiens) (Q13554 whole entry): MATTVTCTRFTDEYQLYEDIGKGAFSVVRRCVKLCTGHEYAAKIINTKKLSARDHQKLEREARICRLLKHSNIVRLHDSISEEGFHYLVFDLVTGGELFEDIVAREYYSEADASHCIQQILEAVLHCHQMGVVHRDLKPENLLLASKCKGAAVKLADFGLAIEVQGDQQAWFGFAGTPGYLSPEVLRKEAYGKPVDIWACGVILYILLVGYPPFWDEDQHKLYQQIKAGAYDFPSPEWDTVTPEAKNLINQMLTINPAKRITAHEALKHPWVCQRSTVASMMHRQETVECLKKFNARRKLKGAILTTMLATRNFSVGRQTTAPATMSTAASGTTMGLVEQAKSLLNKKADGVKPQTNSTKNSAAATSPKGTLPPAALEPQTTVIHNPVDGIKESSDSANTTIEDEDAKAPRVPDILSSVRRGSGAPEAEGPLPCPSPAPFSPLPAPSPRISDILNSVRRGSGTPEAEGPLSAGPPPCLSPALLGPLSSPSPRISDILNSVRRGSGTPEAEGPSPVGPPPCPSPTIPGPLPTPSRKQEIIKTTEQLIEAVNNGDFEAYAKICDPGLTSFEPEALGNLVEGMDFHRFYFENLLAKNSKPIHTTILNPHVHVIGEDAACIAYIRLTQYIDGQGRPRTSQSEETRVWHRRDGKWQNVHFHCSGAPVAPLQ
Chain of Serine/threonine-protein kinase WNK1 (Homo sapiens) (Q9H4A3 whole entry, looked up): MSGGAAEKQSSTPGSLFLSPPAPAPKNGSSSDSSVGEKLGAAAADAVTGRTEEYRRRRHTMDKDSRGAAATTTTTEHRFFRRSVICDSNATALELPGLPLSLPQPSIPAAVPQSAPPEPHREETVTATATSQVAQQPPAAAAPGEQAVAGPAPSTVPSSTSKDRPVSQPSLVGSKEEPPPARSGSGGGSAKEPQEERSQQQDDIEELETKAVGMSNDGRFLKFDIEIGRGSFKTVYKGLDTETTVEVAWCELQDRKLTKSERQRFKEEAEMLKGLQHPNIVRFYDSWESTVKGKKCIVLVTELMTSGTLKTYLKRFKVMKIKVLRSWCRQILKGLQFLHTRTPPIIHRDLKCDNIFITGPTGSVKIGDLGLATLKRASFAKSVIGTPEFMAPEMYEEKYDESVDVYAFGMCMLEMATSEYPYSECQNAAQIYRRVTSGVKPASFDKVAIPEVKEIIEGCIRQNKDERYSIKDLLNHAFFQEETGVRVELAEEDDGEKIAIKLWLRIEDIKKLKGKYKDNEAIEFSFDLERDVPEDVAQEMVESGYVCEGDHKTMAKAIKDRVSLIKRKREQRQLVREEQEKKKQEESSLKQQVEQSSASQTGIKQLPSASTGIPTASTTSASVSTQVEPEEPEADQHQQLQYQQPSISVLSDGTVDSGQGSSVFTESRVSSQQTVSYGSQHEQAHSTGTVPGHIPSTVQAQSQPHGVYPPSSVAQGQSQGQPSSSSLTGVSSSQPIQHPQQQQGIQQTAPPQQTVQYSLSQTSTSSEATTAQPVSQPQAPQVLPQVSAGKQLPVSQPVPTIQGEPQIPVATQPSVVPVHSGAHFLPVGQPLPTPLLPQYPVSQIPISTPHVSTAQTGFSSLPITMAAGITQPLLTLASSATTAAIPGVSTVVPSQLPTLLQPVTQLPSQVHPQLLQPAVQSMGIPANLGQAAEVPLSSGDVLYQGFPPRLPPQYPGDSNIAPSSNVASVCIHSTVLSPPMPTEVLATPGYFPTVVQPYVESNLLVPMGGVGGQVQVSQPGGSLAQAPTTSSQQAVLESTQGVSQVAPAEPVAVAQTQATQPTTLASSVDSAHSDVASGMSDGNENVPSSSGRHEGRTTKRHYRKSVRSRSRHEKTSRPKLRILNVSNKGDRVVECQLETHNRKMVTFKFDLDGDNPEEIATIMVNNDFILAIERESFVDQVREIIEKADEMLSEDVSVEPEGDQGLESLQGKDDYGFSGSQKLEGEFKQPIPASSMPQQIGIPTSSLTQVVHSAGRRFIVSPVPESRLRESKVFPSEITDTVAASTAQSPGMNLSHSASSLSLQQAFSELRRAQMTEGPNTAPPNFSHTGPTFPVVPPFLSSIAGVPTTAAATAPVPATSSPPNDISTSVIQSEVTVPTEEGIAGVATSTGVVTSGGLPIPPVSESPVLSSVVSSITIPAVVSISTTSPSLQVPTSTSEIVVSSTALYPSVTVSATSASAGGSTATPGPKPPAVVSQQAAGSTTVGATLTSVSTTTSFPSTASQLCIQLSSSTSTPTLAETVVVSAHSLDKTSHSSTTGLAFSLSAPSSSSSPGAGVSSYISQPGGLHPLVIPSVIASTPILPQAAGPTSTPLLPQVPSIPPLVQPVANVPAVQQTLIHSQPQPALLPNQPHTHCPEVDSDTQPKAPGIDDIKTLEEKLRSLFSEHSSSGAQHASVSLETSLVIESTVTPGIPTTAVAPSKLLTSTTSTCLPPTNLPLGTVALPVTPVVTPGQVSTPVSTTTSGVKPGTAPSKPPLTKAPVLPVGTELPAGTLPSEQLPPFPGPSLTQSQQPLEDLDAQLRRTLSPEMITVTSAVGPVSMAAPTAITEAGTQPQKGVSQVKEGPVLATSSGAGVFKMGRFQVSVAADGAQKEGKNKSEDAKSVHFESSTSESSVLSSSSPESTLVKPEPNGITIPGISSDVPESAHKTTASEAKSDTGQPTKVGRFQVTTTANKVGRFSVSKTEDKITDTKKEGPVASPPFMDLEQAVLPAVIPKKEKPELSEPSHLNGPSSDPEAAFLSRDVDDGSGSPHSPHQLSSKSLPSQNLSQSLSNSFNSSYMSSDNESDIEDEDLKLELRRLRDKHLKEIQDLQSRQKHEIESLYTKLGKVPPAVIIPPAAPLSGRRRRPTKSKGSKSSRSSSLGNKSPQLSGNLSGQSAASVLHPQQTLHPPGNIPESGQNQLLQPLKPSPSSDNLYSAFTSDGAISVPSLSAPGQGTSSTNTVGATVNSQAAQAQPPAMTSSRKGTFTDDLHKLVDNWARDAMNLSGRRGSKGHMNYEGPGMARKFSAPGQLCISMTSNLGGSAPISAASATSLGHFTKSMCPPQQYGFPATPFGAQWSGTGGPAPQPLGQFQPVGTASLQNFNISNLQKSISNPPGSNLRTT
Chain of Beta-1 adrenergic receptor (Homo sapiens) (P08588 whole entry, looked up): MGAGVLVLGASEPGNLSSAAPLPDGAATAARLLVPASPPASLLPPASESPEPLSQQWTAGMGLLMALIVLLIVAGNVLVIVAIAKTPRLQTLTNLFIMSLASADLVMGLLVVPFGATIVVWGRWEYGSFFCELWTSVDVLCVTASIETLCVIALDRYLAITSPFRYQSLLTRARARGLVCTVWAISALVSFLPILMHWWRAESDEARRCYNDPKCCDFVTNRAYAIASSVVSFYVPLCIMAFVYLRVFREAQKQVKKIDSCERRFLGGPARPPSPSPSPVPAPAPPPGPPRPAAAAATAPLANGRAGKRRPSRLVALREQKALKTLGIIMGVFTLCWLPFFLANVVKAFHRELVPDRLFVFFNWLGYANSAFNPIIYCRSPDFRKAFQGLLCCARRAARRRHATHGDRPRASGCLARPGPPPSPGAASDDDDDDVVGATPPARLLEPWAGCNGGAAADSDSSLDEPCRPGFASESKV
Chain of D(1B) dopamine receptor (Homo sapiens) (P21918 whole entry): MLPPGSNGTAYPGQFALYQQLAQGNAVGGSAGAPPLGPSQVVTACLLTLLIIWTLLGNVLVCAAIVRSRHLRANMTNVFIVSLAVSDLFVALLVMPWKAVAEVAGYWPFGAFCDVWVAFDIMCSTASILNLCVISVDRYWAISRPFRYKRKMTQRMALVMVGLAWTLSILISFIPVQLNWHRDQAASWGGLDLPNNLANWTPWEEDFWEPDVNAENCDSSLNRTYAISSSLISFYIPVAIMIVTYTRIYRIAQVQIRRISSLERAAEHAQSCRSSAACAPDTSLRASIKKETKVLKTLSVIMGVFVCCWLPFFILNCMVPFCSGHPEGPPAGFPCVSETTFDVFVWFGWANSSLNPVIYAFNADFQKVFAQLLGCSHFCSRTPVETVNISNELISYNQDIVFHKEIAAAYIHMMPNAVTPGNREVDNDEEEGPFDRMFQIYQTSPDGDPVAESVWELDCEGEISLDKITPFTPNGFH
Chain of 5-hydroxytryptamine receptor 1D (Homo sapiens) (P28221 whole entry): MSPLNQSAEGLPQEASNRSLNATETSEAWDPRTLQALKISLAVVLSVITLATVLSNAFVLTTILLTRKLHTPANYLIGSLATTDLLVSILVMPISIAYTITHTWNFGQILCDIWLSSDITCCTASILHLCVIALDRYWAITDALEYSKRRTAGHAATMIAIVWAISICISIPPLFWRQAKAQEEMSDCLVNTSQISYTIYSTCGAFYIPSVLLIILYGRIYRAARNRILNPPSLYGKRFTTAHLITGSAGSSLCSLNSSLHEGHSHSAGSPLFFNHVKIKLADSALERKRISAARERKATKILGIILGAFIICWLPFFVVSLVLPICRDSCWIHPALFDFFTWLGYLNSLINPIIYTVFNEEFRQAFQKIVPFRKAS

Take `CCC[C@@H]1CNCc2c1[nH]c(=O)c(C#N)c2N1CCC2(CC1)CC2`: the inhibition – broadly, the drop in the measured response relative to a control, in per cent – was 16.9% in [1]; -5.59% in assay [2]; 5.97% in assay [4]; -0.07% in [5]; 4.19% in assay [8]; 35% in assay [10]. Moreover, in assay [11], the inhibition was -7.72%. In addition, the delta Tm Staurosporine positive control amounted to 2.2 in [3], 7.9 in [6], 0.0474 in assay [7] and 13.7 in assay [9]. In addition, the ΔTm in [3] was -0.301; in assay [6], 0.316; in [7], -0.384; in [9], -0.647.
With `CCC[C@H]1CNCc2c1[nH]c(=O)c(C#N)c2N1CCC2(CC1)CC2`, the inhibition in [1] was 4.16%; in [2], 3.16%; in assay [4], -8.08%; in assay [5], 2.5%; in assay [8], 2.11%; in assay [10], 25%. The inhibition in [11] was -3.72%. The delta Tm Staurosporine positive control in [3] was determined as 2.2; in assay [6] it was 7.9; in [7] it was 0.0474; in assay [9] it was 13.7. In addition, the ΔTm in assay [3] is -0.456; in assay [6] it was 0.222; in assay [7], -0.47; in assay [9], -0.51.
